Series [1] concerns the target T-type Ca^2+ current (Rattus norvegicus, UniProt O54898). The series is described as follows: Patch clamp recording of T-type Ca^2+ current in insulin-secreting (INS-1) cells. Format: cell-based. The procedure: (§1) Cell Culture—INS-1 cells were cultured in RPMI 1640 medium containing 10% FBS, 25 U/ml penicillin, […] streptomycin and 50 μM mercaptoethanol in an atmosphere of 5% CO2 in air, at 37° C. for 2-5 days before recording.
(§2) β-cells Electrophysiological recording—The whole-cell recordings were carried out by the standard “giga-seal” patch clamp technique (Hamill et al.). The whole-cell recording pipettes were made of hemocapillaries (Warner), pulled by a two-stage puller (PC-10, Narishige International, New York, N.Y.), and heat polished with a microforge (MF200-1, World Precision Instruments, Sarasota, Fla.) before use. Pipette resistance was in the range of 2-5 MΩ in the internal solution. The recordings were performed at room temperature (22-25° C.). Currents were recorded using an EPC-9 patch-clamp amplifier (HEKA) and filtered at 2.9 kHz. Data were acquired with Pulse/PulseFit software (HEKA). Voltage-dependent currents were corrected for linear leak and residual capacitance by using an on-line P/n subtraction paradigm.
(§3) Solutions—The extracellular solution used in whole-cell Ca^2+ current recording contained (in mM): 10 CaCl21 110 tetraethylammonium-Cl (TEA-Cl), 10 CsCl, 10 N-2-hydroxyethylpiperazine-N′-2-ethanesulfonic acid (HEPES), 40 sucrose, 0.5 3,4-diaminopyridine, pH 7.3. The intracellular solution contained (in mM): 130 N-methyl-D-glucamine, 20 EGTA (free acid), 5 bis (2-aminophenoxy) ethane-N,N,N′,N′-tetraacetate (BAPTA), 10 HEPES, 6 MgCl2, 4 Ca(OH)2/pH was adjusted to 7.4 with methanesulfonate. 2 mM Mg-ATP was included in the pipette solution to minimize rundown of L-type Ca^2+ currents. For Perforated-patch recording, the extracellular solution contained (in mM): 26 Sucrose, 30 TEA-Cl, 10 HEPES, 5 KCl, 2 CaCl2, MgCl2, pH 7.3. The pipette solution contained (in mM): 65 CsOH, 65 CsMS, 20 sucrose, 10 HEPES, 10 MgCl2, 1 Ca(OH)2, pH 7.4.
(§4) The T-type Ca^2+ current was measured at −30 mV when the membrane was held at −90 mV and the L-type current was measured at +20 mV when the membrane was held at −40 mV. The currents were measured twice at each concentration of mibefradil with 2 min in between measurements.
(§5) A drug diffusing system was then used to test the reversibility of the antagonism of T- and L-type Ca^2+ currents by mibefradil. Small volumes (approximately 2 μl) of drugs were delivered in close proximity to the recording cell with a quartz capillary positioned by a micromanipulator. After administration, drugs diffused throughout the entire recording chamber containing 2 ml of bath solution. This drug diffusing system was used to test the reversibility of 30 μM of NiCl2 on the T-type Ca^2+ currents (FIG. 4).

For a further series, the system named is β-TC3 cells. The series is described as follows: Cytokine-induced DNA fragmentation in β-TC3 cells. The format is cell-based, mouse. The conditions noted are these: β-TC3 cells (n=2); same results in NIT-1 cells (n=3).
Series [2] deals with NIT-1 cells. Put plainly: Cytokine-induced cell death in NIT-1 cells. Format: cell-based, mouse.
For series [3] the following is noted: rat; cited from earlier work.
Another series relates to INS-1 cells. The series is described as follows: Basal [Ca^2+]i in INS-1 cells by fura-2 fluorescence. Format: cell-based, rat. The conditions noted are these: 1 μM, single INS-1 cell with basal [Ca^2+]i near 150 nM, no glucose; dihydrochloride. As to the method: [Ca^2+]i was directly measured by the ratio of fluorescence excitations at Ca^2+-bound […], and then the ratio was converted to the calcium concentration. The bath solution contained […], 4 mM KCl, 2 mM CaCl2, and 2 mM MgCl2.
The effect of basal [Ca^2+]i on Ca^2+ influx was examined using the Ca^2+ dye indicator fura-2 and fluorescence measurements. Voltage-dependent Ca^2+ influx in a single cell was obtained by perfusion of an osmotically balanced solution containing 50 mM KCl into the recording chamber. […] The resting basal [Ca^2+]i in INS-1 cells was approximately 60-80 nM under the experimental conditions. [Ca^2+]i was determined by a standard curve obtained from a fura-2 calcium imaging kit (Molecule Probes). The empirical Kd obtained for calcium binding to fura-2 in the system was 296±20 nM. When basal [Ca^2+]i remains low, subsequent voltage stimulation with 50 KCl induces rapid and large calcium influx into the cell and these calcium changes are stereotyped upon repetitive stimulation when basal calcium is restored (FIG. 10). In this experiment, following the 50 KCl depolarization, the cell was repolarized by perfusion of the original 5 mM KCl solution. After repolarization, basal [Ca^2+]i slowly reset and then a second 50 KCl depolarization induced a similar [Ca^2+]i transient. When the basal calcium is not allowed to reset, a defect in the second voltage induced calcium transient occurs (FIG. 11). […] Therefore effectors of basal [Ca^2+]i will have important impact on the amount of calcium that can enter the cell.

Series [4] is described as follows: Mass spectrometric analysis of mibefradil and dm-mibefradil in INS-1 cells.
Description: Mass Spectrometric Analysis—A VG 70-250 SEQ instrument (VG Analytical, Manchaster, UK) was used with fast atom bombardment (FAB) ionization mode to obtain mass spectra of the mibefradil and dm-mibefradil. Cultured INS-1 cells were treated with 20 μM mibefradil for various lengths of time under each experimental condition. The cell pellets were collected after washing three times with PBS and resuspended in 0.5 ml media for mass spectrometric analysis. For a 50 μl cell sample, 20 μl internal standard solution (40 μM verapamil, MW: 454) and 5 μl glycerol was added, and 4 μl of this mixture was used for FAB-MS. Several positive ion spectra were recorded in the mass range m/z 750-100 at a mass resolution of 1000, and a scan speed of 2 second/decade. For mibefradil, m/z 496 was the dominant ion (M+H)^+ accompanied with a less intense sodiated molecular ion m/z 518. The concentrations of the mibefradil and hydrolyzed mibefradil were obtained by comparing the intensities of m/z 496 and 424 were to the intensity of m/z 455. For calibration, a standard solution of 50 μM drug was subjected to mass spectrometric analysis.
To test the hypothesis that mibefradil may permeate through the cell membrane to the cytoplasm and be trapped inside cells, the presence of mibefradil was examined in cells pre-incubated with 20 μM of mibefradil using mass spectrometry. […] The localization of mibefradil in cells was examined by measuring the concentration of mibefradil in the pellets and supernatants after lysis of the cells.
The subject of the next series is L-type Ca^2+ current. The series is described as follows: Patch clamp recording (whole-cell and perforated patch) of L-type Ca^2+ current in insulin-secreting (INS-1) cells. Format: cell-based, rat. As to the method: as §1, §2, §3, §4, §5
This hypothesis was tested by applying a very low dose of mibefradil on cells and recording the L-type Ca^2+ currents for a long time in the perforated patch-clamp configuration.

In series [5] the test system is NIT-1 cells. The series is described as follows: Basal insulin secretion in NIT-1 cells. The format is cell-based, mouse. The note with it: 5 μM mibefradil, 3 mM glucose. The source says:
NIT-1 is a cell line derived from the β-cells of non-obese-diabetic mouse. This cell line expressed high levels of T-type Ca^2+ current.

Series [6] deals with T-type Ca^2+ current. The note with it: vascular smooth muscle cells; cited from earlier work.
[7] abbreviates: 1 μM in the pipette solution, whole-cell, 5 min after patch formation.
[8] abbreviates: cells pre-incubated with 20 μM mibefradil.

Entries after “also recorded” stand apart in the source; their conditions may differ. Where a name gives a salt, the structure may show the parent alone.

T-type Ca^2+ current (Rattus norvegicus, UniProt O54898), sequence (O54898 whole entry): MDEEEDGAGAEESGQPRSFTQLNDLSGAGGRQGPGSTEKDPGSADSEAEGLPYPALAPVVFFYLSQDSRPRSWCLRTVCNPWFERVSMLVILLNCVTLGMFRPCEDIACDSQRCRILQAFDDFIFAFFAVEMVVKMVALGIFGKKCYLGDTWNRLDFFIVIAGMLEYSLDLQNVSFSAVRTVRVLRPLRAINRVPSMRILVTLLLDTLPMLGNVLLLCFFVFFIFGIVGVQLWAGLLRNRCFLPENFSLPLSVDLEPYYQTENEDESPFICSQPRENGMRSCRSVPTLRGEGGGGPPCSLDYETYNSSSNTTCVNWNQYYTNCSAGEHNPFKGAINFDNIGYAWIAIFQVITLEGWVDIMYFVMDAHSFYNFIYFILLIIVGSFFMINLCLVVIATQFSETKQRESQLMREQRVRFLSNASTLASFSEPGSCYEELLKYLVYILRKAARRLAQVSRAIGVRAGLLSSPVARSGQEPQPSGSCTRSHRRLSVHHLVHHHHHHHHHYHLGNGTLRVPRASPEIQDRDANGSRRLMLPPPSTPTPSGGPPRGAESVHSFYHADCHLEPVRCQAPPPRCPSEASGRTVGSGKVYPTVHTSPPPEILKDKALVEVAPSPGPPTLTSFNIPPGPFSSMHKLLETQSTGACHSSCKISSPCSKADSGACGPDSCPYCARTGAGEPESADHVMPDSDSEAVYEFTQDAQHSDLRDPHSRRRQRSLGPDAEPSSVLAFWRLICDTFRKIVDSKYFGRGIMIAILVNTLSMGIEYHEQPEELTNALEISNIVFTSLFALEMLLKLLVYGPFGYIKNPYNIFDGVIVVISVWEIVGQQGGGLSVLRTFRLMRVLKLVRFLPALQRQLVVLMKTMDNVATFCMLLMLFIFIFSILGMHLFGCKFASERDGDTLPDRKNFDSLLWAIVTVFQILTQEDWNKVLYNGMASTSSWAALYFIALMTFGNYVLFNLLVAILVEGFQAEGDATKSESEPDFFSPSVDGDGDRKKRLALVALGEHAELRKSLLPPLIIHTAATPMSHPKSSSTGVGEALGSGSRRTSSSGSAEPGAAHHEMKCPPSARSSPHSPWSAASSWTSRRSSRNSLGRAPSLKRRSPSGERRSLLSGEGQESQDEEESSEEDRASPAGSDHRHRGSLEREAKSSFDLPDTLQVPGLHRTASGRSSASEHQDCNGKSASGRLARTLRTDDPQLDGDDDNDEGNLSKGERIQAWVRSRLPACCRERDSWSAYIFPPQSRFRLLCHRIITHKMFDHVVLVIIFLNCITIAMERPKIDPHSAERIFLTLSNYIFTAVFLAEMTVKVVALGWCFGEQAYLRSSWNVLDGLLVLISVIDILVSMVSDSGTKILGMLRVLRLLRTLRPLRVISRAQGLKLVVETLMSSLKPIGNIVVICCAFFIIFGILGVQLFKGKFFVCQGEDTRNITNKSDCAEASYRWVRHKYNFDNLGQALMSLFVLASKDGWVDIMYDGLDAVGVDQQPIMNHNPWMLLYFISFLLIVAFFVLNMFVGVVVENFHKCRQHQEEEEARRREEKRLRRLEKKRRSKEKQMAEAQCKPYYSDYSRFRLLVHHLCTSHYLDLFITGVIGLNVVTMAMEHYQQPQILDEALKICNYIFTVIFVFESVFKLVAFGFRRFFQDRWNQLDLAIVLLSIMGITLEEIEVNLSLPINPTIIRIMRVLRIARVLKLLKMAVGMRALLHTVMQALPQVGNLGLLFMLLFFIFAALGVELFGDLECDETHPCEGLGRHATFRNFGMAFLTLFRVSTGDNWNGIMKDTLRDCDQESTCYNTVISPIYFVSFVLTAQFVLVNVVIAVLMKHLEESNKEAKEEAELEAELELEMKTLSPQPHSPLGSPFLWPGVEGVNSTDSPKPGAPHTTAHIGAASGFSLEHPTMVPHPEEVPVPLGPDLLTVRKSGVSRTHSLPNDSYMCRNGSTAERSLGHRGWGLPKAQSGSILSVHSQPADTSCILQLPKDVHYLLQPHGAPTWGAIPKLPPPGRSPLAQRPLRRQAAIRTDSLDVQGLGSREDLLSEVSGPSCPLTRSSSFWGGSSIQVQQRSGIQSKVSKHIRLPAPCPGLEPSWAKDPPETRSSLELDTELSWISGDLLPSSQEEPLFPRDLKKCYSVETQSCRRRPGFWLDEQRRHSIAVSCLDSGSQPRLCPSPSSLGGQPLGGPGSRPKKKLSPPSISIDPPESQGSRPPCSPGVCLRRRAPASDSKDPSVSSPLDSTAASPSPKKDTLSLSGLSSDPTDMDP

Regarding `COCC(=O)O[C@]1(CCN(C)CCCc2nc3ccccc3[nH]2)CCc2cc(F)ccc2[C@@H]1C(C)C` [mibefradil, (1S,2S)-2-[2-[[3-(2-Benzimidazolyl)propyl]methyl-amino]ethyl]-6-fluoro-1,2,3,4-tetrahydro-1-isopropyl-2-napthyl methoxy-acetate dihydrochloride], the “long-term effect on the T-type Ca^2+ current” value on T-type Ca^2+ current [1] (10 nM, perforated patch) is reported as “no long-term effect”. Besides, on T-type Ca^2+ current [1] (1 μM in recording chamber, conventional whole cell patch clamp, dihydrochloride), the “block of T-type Ca^2+ current” value is “blocks T- and L-type Ca^2+ current”. Further, the “effect on T-type Ca^2+ current from inside of cells” value on T-type Ca^2+ current [1] (setting [7]) is listed as “did not have inhibitory effects”. Further, the “sensitivity of T-type versus L-type Ca^2+ current” value on T-type Ca^2+ current [1] (1 μM, pancreatic β-cells) is “more sensitive”. Besides, the “reversibility of the inhibition of T-type Ca^2+ current” value at T-type Ca^2+ current [1] (drug diffusing system, small volume delivered near the cell, dihydrochloride) is given as “clearly reversible; also recorded: reversibly block T type Ca^2+ current”. In addition, the “time dependence of the inhibition of T-type Ca^2+ current” value at T-type Ca^2+ current [1] (whole-cell patch clamp, bath perfusion) was “No time-dependent inhibition”. Besides, the “effect on cytokine-induced DNA fragmentation” value with β-TC3 cells is on record as “prevented cytokine-induced DNA fragmentation”. Moreover, the “effect on cytokine-induced cell death” value in the series with NIT-1 cells [2] is recorded as “reduced β-cells death induced by cytokines”. In [3], the “effect on development of hyperinsulinemia” value is “prevented and reversed development of hyperinsulinemia”. Moreover, the “effect on basal [Ca^2+]i” value in the series on INS-1 cells was “immediately lowered the basal calcium; also recorded: reduced basal [Ca^2+]i”. The “concentration of intracellular mibefradil” value in series [4] (cells incubated with 20 μM mibefradil for one minute, 3 washes, n=3) was determined as 3.18 ± 0.78 µM. For the same compound, in series [4] (setting [8]), the “share of mibefradil detected in the supernatants after lysis of the cells” value stood at 92% and the “share of mibefradil found in the pellets after washing with methanol” value is given as 0%. In addition, the “relative L-type Ca^2+ currents” value in the series with L-type Ca^2+ current (10 nM mibefradil, after 25 minutes, perforated patch-clamp) was determined as 70%. For the same compound, the “L-type current densities after incubation” value in the series with L-type Ca^2+ current (10 nM mibefradil, two hours incubation, perforated patches) is listed as “further reduction of current densities”. The “effect on L-type Ca^2+ current from inside of cells” value with L-type Ca^2+ current (setting [7]) is “did not have inhibitory effects”. For the same compound, in the series on L-type Ca^2+ current (1 μM mibefradil, after 10 minutes, whole-cell, n=4), the “L-type Ca^2+ current, % of the beginning amplitude” value was “up to 70%”. For the same compound, the “block of L-type Ca^2+ current” value with L-type Ca^2+ current (1 μM, INS-1 cells) was “blocks T- and L-type Ca^2+ current”. In addition, in the series with L-type Ca^2+ current (drug diffusing system, perforated patch), the “reversibility of the inhibition of L-type Ca^2+ current” value is recorded as “poorly reversible”. Moreover, the “basal insulin secretion relative to control” value in the series with NIT-1 cells [5] is “less than 40”. Besides, the “inhibitory effect on T-type Ca^2+ current” value with T-type Ca^2+ current [6] is given as “potent inhibitory effect”.

The record behind these values is patent US20030125269A1, “T-TYPE CALCIUM CHANNEL” (priority 1998, published 2003).
